The experiment addresses T1, recombinant human 5-HT4 receptor (Homo sapiens, UniProt Q13639).
T1 construct: expressed in transfected cells
Description: Determination of EC50 values for 5-HT4 receptor (CHO cells, pCRE-Luc reporter). Type of experiment: cell-based. Conditions: for EC50: 4 hours incubation. The procedure: Determination of EC50 Values for 5-HT4 Receptor
A stable CHO cell line expressing recombinant human 5-HT4 receptor and pCRE-Luc reporter system was used for cell-based assay. The assay offers a non-radioactive based approach to determine binding of a compound to GPCRs. In this specific assay, the level of intracellular cyclic AMP, which is modulated by activation, or inhibition of the receptor is measured. The recombinant cells harbor luciferase reporter gene under the control of cAMP response element.
The above cells were grown in 96 well clear bottom white plates in Hams F12 medium containing 10% fetal bovine serum (FBS). Prior to the addition of compounds or standard agonist, cells were serum starved overnight. Increasing concentrations of test compounds were added in OptiMEM medium to the cells. The incubation was continued at 37° C. in CO2 incubator for 4 hours. Medium was removed and cells were washed with phosphate buffered saline. The cells were lysed and luciferase activity was measured in a Luminometer. Luminescence units were plotted against the compound concentrations using Graphpad software.

[1] abbreviates: CHO cells, human 5-HT4 receptor, luciferase reporter.
Setting [2] is: CHO, CHO cells, human 5-HT4 receptor, luciferase reporter, read-out: Emax.

Read-outs that look alike come from different tables or passages of the source.

T1 sequence (Q13639 whole entry): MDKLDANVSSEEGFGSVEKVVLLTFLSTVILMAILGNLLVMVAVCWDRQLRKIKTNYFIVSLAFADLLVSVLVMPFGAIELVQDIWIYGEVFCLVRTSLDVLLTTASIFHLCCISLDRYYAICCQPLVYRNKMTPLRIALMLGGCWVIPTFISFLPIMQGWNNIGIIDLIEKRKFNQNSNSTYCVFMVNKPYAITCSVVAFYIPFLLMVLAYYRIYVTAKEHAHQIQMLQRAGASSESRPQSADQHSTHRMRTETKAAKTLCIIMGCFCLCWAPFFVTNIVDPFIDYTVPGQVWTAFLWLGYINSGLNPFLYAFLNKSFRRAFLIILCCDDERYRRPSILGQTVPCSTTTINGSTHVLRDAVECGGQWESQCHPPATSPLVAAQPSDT

For `Nc1c(Cl)cc(C(=O)NCC2C3CN(CCF)CC23)c2ncccc12` (stereo not shown) [Example 53], the EC50 under setting [1] was found to be 4.5 nM. Besides, the Emax under setting [2] is 65%.

Turning to `Nc1c(Cl)cc(C(=O)NCC2C3CN(CCO)CC23)c2ncccc12` (stereo not shown) [Example 50, 5-Amino-6-chloro-N-{[3-(2-hydroxyethyl)-3-azabicyclo[3.1.0]hex-6-yl]methyl} quinoline-8-carboxamide], under setting [1], the EC50 was 1.7 nM. Moreover, the Emax under setting [2] stood at 72%.

With `CC(C)(O)CN1CCC(CNC(=O)c2cc(Br)c(N)c3cccnc23)CC1` [Example 44, 5-Amino-6-bromo-N-{[1-(2-hydroxy-2-methylpropyl)-4-piperidinyl]methyl} quinoline-8-carboxamide L(+)-tartarate], the Emax (CHO) worked out at 52%. Also, the EC50 under setting [1] was found to be 0.3 nM.

As for `Nc1c(Cl)cc(C(=O)NCC2C3CN(CC4CC4)CC23)c2ncccc12` (stereo not drawn) [Example 9, 5-Amino-6-chloro-N-{[3-cyclopropylmethyl-3-azabicyclo[3.1.0]hex-6-yl]methyl} quinoline-8-carboxamide L(+)-tartarate], for the setting “CHO”, the Emax turned out to be 87%. Also, the EC50 under setting [1] came to 0.8 nM.

As to `CC(C)(CN1CCC(CNC(=O)c2cc(Cl)c(N)c3cccnc23)CC1)C(=O)O` [Example 32, 5-Amino-6-chloro-N-{[1-(2,2-dimethylproponic acid-3-yl)-4-piperidinyl]methyl}quinoline-8-carboxamide L(+)-tartarate], under “CHO”, the Emax came to 60%. The EC50 under setting [1] came to 1.2 nM.

Take `CC(C)(O)CN1CCC(F)(CNC(=O)c2cc(F)c(N)c3cccnc23)CC1` [Example 42, 5-Amino-6-fluoro-N-{[4-fluoro-1-(2-hydroxy-2-methylpropyl)-4-piperidinyl]methyl} quinoline-8-carboxamide]: the EC50 under setting [1] is 4 nM. In addition, the Emax under setting [2] was 74%.

In the case of `CC(C)(O)CN1CCC(F)(CNC(=O)c2cc(Cl)c(N)c3cccnc23)CC1` [Example 36, 5-Amino-6-chloro-N-{[4-fluoro-1-(2-hydroxy-2-methylpropyl)-4-piperidinyl]methyl} quinoline-8-carboxamide], under setting [1], the EC50 came to 2.3 nM. The Emax under setting [2] was determined as 74%.

`Nc1c(Cl)cc(C(=O)NCC2CCN(CC3CCOCC3)C2)c2ncccc12` (stereo not drawn) [Example 12, 5-Amino-6-chloro-N-{[1-(tetrahydro-2H-pyran-4-ylmethyl)-3-pyrrolidinyl]methyl} quinoline-8-carboxamide L(+)-tartarate]: the Emax (CHO) was found to be 83%. Also, under setting [1], the EC50 was 0.2 nM.

For `Nc1c(Br)cc(C(=O)NCC2C3CN(CC4CCOCC4)CC23)c2ncccc12` (stereo not drawn) [Example 17, 5-Amino-6-bromo-N-{[3-(tetrahydro-2H-pyran-4-ylmethyl)-3-azabicyclo[3.1.0]hex-6-yl]methyl}quinoline-8-carboxamide L(+)-tartarate], the Emax (CHO) came out at 72%. Further, the EC50 under setting [1] was found to be 0.8 nM.

As to `Nc1c(Cl)cc(C(=O)NCC2C3CN(CC4(O)CCOCC4)CC23)c2ncccc12` (stereo not drawn) [Example 25, 5-Amino-6-chloro-N-{[3-(4-hydroxytetrahydro-2H-pyran-4-ylmethyl)-3-azabicyclo[3.1.0]hex-6-yl]methyl}quinoline-8-carboxamideL(+)-tartarate], the Emax (CHO) was found to be 93%. Further, the EC50 under setting [1] was found to be 0.6 nM.

Consider `Nc1c(Cl)cc(C(=O)NCC2C3CN(CCCO)CC23)c2ncccc12` (stereo not shown) [Example 51, 5-Amino-6-chloro-N-{[3-(3-hydroxypropyl)-3-azabicyclo[3.1.0]hex-6-yl]methyl} quinoline-8-carboxamide], for which the EC50 under setting [1] was determined as 1.4 nM. Moreover, under setting [2], the Emax was determined as 85%.

With `COCC(C)(C)CN1CCC(CNC(=O)c2cc(Cl)c(N)c3cccnc23)CC1` [Example 55, 5-Amino-6-chloro-N-{[1-(3-methoxy-2,2-dimethylpropyl)-4-piperidinyl]methyl}quinoline-8-carboxamide L(+)-tartarate], the Emax (CHO) was 72%. Further, the EC50 under setting [1] turned out to be 0.09 nM.

Regarding `Nc1c(F)cc(C(=O)NCC2CCN(CC3CCOCC3)CC2)c2ncccc12` [Example 11, 5-Amino-6-fluoro-N-{[1-(tetrahydro-2H-pyran-4-ylmethyl)-4-piperidinyl]methyl} quinoline-8-carboxamide L(+)-tartarate], the Emax (CHO) worked out at 77%. Under setting [1], the EC50 was determined as 0.3 nM.

In the case of `Nc1c(Cl)cc(C(=O)NCC2CCN(C3CCOCC3)CC2)c2ncccc12` [Example 6, 5-Amino-6-chloro-N-{[1-(tetrahydro-2H-pyran-4-yl)-4-piperidinyl]methyl}quinoline-8-carboxamide L(+)-tartarate], for the setting “CHO”, the Emax was 56%. In addition, the EC50 under setting [1] turned out to be 0.1 nM.

In the case of “5-Amino-6-chloro-N-{[3-(2-fluoro-2-methyl propyl)-3-azabicyclo[3.1.0]hex-6-yl]methyl} quinoline-8-carboxamide [Example 47]”, under setting [1], the Emax amounted to 79% and the EC50 turned out to be 1.6 nM.

`CC(C)CN1CC2C(CNC(=O)c3cc(Cl)c(N)c4cccnc34)C2C1` (stereo not drawn) [Example 8, 5-Amino-6-chloro-N-{[3-isobutyl-3-azabicyclo[3.1.0]hex-6-yl]methyl}quinoline-8-carboxamide L(+)-tartarate]: the Emax (CHO) is 87%. For the same compound, the EC50 under setting [1] was determined as 0.7 nM.

Consider `Nc1c(Cl)cc(C(=O)NCC2(O)CCN(CC3(O)CCOCC3)CC2)c2ncccc12` [Example 29, 5-Amino-6-chloro-N-{[4-hydroxy-1-(4-hydroxytetrahydro-2H-pyran-4-ylmethyl)-4-piperidinyl]methyl}quinoline-8-carboxamide L(+)-tartarate], for which the Emax (CHO) worked out at 84%. Further, the EC50 under setting [1] worked out at 0.1 nM.

As to `CC(C)(F)CN1CCC(F)(CNC(=O)c2cc(Cl)c(N)c3cccnc23)CC1` [Example 48, 5-Amino-6-chloro-N-{[4-fluoro-1-(2-fluoro-2-methylpropyl)-4-piperidinyl]methyl} quinoline-8-carboxamide], the EC50 under setting [1] amounted to 8.9 nM. Further, under setting [2], the maximum response (Emax) is 84%.

`CC(C)N1CC2C(CNC(=O)c3cc(Cl)c(N)c4cccnc34)C2C1` (stereo not drawn) [Example 10, 5-Amino-6-chloro-N-{[3-isopropyl-3-azabicyclo[3.1.0]hex-6-yl]methyl}quinoline-8-carboxamide L(+)-tartarate]: under “CHO”, the Emax turned out to be 83%. Further, under setting [1], the EC50 stood at 1.5 nM.

With `CC(C)(F)CN1CCC(CNC(=O)c2cc(Cl)c(N)c3cccnc23)CC1` [Example 46, 5-Amino-6-chloro-N-{[1-(2-fluoro-2-methylpropyl)-4-piperidinyl]methyl}quinoline-8-carboxamide], the EC50 under setting [1] was found to be 0.1 nM. In addition, the Emax under setting [2] was 58%.

`CC(C)(O)CN1CCC(CNC(=O)c2cc(Cl)c(N)c3cccnc23)CC1` [Example 35, 5-Amino-6-chloro-N-{[1-(2-hydroxy-2-methylpropyl)-4-piperidinyl]methyl}quinoline-8-carboxamide L(+)-tartarate]: under “CHO”, the Emax was determined as 48%. In addition, the EC50 under setting [1] came to 0.1 nM.

With `Nc1c(Cl)cc(C(=O)NCC2(O)CCN(CC3CCOCC3)CC2)c2ncccc12` [Example 22, 5-Amino-6-chloro-N-{[4-hydroxy-1-(tetrahydro-2H-pyran-4-ylmethyl)-4-piperidinyl]methyl}quinoline-8-carboxamide L(+)-tartarate], the Emax (CHO) was determined as 86%. Further, the EC50 under setting [1] is 0.2 nM.

As for `Nc1c(Cl)cc(C(=O)NC2CCN(CC3(O)CCOCC3)CC2)c2ncccc12` [Example 24, 5-Amino-6-chloro-N-[1-(4-hydroxytetrahydro-2H-pyran-4-ylmethyl)-4-piperidinyl] quinoline-8-carboxamide], under setting [1], the EC50 is 4.1 nM. For the same compound, the Emax under setting [2] worked out at 81%.

As for `Nc1c(Cl)cc(C(=O)NC2CCN(CC3CCOCC3)CC2)c2ncccc12` [Example 3, 5-Amino-6-chloro-N-[1-(tetrahydro-2H-pyran-4-ylmethyl)-4-piperidinyl]quinoline-8-carboxamide], the EC50 under setting [1] stood at 2.5 nM. Further, under setting [2], the Emax was 79%.

Regarding `Nc1c(Br)cc(C(=O)NCC2CCN(CC3CCOCC3)CC2)c2ncccc12` [Example 16, 5-Amino-6-bromo-N-{[1-(tetrahydro-2H-pyran-4-ylmethyl)-4-piperidinyl]methyl} quinoline-8-carboxamide L(+)-tartarate], the Emax (CHO) is 62%. Besides, the concentration for a half-maximal effect (EC50) under setting [1] was 0.08 nM.

Regarding `Nc1c(Cl)cc(C(=O)NCC2CCN(CC3(O)CCOCC3)CC2)c2ncccc12` [Example 26, 5-Amino-6-chloro-N-{[1-(4-hydroxytetrahydro-2H-pyran-4-ylmethyl)-4-piperidinyl]methyl}quinoline-8-carboxamide], under setting [2], the maximum response (Emax) is 65%.

With `CC(C)(O)CN1CC2C(CNC(=O)c3cc(Cl)c(N)c4cccnc34)C2C1` (stereo not drawn) [Example 40, 5-Amino-6-chloro-N-{(3-(2-hydroxy-2-methylpropyl)-3-azabicyclo[3.1.0]hex-6-yl]methyl} quinoline-8-carboxamide L(+)-tartarate], the Emax (CHO) was determined as 63%. Further, the EC50 under setting [1] was found to be 3.9 nM.

As for `CC(C)(O)CN1CCC(F)(CNC(=O)c2cc(Br)c(N)c3cccnc23)CC1` [Example 45, 5-Amino-6-bromo-N-{[4-fluoro-1-(2-hydroxy-2-methylpropyl)-4-piperidinyl]methyl} quinoline-8-carboxamide L(+)-tartarate], the Emax (CHO) came out at 89%. Besides, the EC50 under setting [1] is 11.8 nM.
